Results on three compounds are retold here after paper PMC4990249, “Mitochondrial Probe Methyltriphenylphosphonium (TPMP) Inhibits the Krebs Cycle Enzyme 2-Oxoglutarate Dehydrogenase” (PLoS ONE, 2016).

The IC50 is the midpoint of a concentration-inhibition curve. Low values mean greater potency, high ones weaker potency.

For experiment [1], the target named is T1, 2-oxoglutarate dehydrogenase complex (OGDHC) (Rattus norvegicus, UniProt Q01205+Q5XI78+Q6P6R2).
T1 sequence (Q5XI78 41-1023): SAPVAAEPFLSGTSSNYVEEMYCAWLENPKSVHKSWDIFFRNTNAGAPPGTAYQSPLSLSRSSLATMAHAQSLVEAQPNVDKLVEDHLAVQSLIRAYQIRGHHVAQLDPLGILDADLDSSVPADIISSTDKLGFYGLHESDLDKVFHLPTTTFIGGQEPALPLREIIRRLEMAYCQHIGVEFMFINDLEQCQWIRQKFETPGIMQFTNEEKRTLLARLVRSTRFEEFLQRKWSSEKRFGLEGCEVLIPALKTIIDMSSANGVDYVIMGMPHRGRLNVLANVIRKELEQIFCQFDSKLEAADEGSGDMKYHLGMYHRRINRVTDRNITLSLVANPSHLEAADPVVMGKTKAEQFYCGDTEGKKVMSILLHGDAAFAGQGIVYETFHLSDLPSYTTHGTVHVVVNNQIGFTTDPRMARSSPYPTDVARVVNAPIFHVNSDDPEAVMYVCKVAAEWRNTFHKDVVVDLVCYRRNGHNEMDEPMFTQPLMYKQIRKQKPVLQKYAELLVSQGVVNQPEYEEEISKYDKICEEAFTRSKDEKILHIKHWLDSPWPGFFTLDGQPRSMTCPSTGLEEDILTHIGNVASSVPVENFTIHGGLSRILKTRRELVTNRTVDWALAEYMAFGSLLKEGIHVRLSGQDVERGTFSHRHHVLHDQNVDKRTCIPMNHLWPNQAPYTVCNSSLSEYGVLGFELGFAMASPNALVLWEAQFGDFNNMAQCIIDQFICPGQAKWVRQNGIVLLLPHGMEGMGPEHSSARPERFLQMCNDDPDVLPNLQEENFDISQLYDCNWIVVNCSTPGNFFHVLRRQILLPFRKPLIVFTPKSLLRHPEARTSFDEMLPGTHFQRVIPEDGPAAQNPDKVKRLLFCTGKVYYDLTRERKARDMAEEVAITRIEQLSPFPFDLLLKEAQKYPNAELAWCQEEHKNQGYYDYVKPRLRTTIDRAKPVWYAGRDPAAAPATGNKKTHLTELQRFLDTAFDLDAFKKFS
T1 sequence (Q01205 69-454): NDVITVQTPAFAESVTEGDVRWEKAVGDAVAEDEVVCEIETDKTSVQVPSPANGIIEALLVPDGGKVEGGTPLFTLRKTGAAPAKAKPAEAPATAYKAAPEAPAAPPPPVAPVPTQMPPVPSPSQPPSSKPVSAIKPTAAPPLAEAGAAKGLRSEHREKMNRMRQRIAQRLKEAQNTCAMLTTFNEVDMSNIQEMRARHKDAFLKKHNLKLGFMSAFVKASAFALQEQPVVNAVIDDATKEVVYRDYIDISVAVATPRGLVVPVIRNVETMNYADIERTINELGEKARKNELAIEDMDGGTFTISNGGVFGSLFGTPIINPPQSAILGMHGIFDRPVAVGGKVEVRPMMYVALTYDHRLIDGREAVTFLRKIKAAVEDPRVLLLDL
T1 sequence (Q6P6R2 36-509): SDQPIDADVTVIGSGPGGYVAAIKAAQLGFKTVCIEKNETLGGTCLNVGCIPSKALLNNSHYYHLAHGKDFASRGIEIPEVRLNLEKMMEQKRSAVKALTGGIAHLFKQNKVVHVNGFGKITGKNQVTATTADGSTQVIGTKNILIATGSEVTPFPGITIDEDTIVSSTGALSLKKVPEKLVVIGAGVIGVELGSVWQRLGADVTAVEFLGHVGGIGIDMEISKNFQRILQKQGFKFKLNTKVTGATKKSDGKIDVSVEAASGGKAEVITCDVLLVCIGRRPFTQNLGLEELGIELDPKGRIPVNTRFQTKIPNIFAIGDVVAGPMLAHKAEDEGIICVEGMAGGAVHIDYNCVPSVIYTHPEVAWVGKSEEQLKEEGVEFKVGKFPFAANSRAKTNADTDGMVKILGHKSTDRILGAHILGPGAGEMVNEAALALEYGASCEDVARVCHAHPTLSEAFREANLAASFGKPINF
The experiment in a line: spectrophotometric OGDHC activity (A340) at […] compound in muscle homogenate. It is filed as cell-based. On the set-up: gene Ogdh; native complex in rat skeletal muscle homogenate enriched in mitochondrial fraction; with E2 and E3 components of the complex. The settings on record: read-out: % of control activity at 1 mM.

In experiment [2] the target is T1, 2-oxoglutarate dehydrogenase complex (OGDHC). The experiment in a line: biochemical. The arrangement: gene Ogdh.
For experiment [3], the target named is T2, 2-oxoglutarate dehydrogenase complex (OGDHC) (Sus scrofa, UniProt K9IVI1+P09623+Q9N0F1).
T2 construct: gene OGDH; purified OGDHC enzyme (Sigma K1502), intact complex; with E2 component (dihydrolipoyl transsuccinylase) and E3 component (dihydrolipoyl dehydrogenase) of the complex
T2 sequence (K9IVI1 41-1023): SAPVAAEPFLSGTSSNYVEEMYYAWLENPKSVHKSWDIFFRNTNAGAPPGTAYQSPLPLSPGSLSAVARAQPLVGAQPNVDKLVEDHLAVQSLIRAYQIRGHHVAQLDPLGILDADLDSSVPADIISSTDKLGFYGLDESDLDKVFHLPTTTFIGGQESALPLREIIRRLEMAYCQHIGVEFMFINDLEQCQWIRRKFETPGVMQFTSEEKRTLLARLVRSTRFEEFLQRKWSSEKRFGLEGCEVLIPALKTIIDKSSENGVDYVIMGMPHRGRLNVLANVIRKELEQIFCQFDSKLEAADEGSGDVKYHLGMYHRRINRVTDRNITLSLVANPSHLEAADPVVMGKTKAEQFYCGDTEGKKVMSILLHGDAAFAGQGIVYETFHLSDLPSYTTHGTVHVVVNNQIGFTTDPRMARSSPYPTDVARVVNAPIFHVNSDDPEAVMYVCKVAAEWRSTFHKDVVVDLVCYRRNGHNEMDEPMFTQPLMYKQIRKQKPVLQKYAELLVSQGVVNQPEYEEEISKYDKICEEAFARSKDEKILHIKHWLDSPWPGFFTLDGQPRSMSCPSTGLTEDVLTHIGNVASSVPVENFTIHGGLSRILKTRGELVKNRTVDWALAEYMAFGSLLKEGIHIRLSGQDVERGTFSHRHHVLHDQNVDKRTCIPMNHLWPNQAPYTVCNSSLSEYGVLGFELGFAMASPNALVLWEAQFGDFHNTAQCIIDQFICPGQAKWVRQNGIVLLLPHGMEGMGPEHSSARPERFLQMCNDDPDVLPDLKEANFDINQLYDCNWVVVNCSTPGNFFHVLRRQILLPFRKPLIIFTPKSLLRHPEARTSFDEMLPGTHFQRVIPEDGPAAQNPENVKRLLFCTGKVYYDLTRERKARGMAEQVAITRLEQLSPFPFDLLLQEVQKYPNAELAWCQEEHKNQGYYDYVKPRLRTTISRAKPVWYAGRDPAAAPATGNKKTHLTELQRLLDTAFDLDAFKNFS
T2 sequence (Q9N0F1 69-455): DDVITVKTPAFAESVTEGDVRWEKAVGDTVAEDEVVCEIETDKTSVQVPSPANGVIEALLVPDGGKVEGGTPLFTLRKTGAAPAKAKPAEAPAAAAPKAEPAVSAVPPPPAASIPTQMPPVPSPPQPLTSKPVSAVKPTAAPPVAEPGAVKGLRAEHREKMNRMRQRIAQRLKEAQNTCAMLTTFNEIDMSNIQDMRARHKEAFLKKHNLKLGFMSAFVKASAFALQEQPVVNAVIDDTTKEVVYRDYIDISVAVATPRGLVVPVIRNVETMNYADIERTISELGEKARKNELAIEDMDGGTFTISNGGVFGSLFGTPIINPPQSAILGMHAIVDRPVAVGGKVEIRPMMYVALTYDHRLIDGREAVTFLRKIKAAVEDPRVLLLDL
T2 sequence (P09623 36-509): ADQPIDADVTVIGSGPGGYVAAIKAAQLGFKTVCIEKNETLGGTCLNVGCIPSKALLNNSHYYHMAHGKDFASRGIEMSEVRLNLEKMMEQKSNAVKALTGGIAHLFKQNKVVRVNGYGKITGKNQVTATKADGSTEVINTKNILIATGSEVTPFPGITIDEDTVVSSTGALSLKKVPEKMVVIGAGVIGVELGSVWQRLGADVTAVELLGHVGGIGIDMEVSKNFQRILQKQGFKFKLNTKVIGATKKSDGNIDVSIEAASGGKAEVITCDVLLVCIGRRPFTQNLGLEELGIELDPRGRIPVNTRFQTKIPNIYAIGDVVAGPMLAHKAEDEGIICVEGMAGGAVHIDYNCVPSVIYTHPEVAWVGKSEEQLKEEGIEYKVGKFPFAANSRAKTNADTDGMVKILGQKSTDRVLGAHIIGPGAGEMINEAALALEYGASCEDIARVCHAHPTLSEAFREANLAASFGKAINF
The experiment in a line: Michaelis-Menten kinetics of purified complex, NADH absorbance at […] nm, […] TPMP. It is filed as biochemical.

Take `CCC[P+](c1ccccc1)(c1ccccc1)c1ccccc1` [Propyl, propyltriphenylphosphonium]: in experiment [1], the remaining activity at 1000 µM stood at 60.7%. As to `C[P+](c1ccccc1)(c1ccccc1)c1ccccc1` [TPMP, Methyltriphenylphosphonium], the IC50 in experiment [2] turned out to be 3.93 mM. In addition, in experiment [3], the “Michaelis-Menten kinetics of purified complex, NADH absorbance at 340 nm, 0-5 mM” value was “The pattern of decreasing Vmax and increasing Km fits in a mixed-inhibition model”. As for `CCCCC[P+](c1ccccc1)(c1ccccc1)c1ccccc1` [Pentyl, pentyltriphenylphosphonium], the remaining activity at 1000 µM in experiment [1] amounted to 15.9%.
